# In PubChem BioAssay (NCI):
#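 Assay format: 96-well plates, 48-hour exposure. Abbreviation: GI50, concentration required for 50% inhibition of growth. TGI: total growth inhibition.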
# How the values were obtained:
# Experiment in all cases: growth of human tumour cells (NCI), 48 h
# [1] = test system: DU-145 prostate
# [2] = test system: SN12C renal
# [3] = test system: SNB-19 CNS
# [4] = test system: T-47D breast
# [5] = test system: M14 melanoma
# [6] = test system: UACC-257 melanoma
# [7] = test system: HCT-15 colon
# [8] = test system: PC-3 prostate
# [9] = test system: SK-OV-3 ovarian
# [10] = test system: SK-MEL-28 melanoma
# [11] = test system: MDA-MB-435
# [12] = test system: UO-31 renal
# [13] = test system: OVCAR-5 ovarian
# [14] = test system: BT-549 breast
# [15] = test system: ACHN renal
# [16] = test system: SF-295 CNS
# [17] = test system: MALME-3M melanoma
# [18] = test system: IGROV1 ovarian
# [19] = test system: OVCAR-3 ovarian
# [20] = test system: KM12 colon
# [21] = test system: A498 renal
# [22] = test system: SW-620 colon
# [23] = test system: A549 NSCLC
# [24] = test system: CAKI-1 renal
# [25] = test system: RXF 393 renal
# [26] = test system: U251 CNS
# [27] = test system: NCI-H23 lung
# [28] = test system: SF-268 CNS
# [29] = test system: HS 578T breast
compound,measurement,setting,value
C#C[C@]1(O)CC[C@H]2[C@@H]3CC=C4c5sc(Nc6ccncc6)nc5CC[C@]4(C)[C@H]3CC[C@@]21C,GI50,[1],1050 nM
same,TGI,[1],3620 nM
same,GI50,[2],745 nM
same,TGI,[2],2110 nM
same,GI50,[3],305 nM
same,TGI,[3],4640 nM
same,GI50,[4],973 nM
same,TGI,[4],3990 nM
same,GI50,[5],182 nM
same,TGI,[5],398 nM
same,GI50,[6],193 nM
same,TGI,[6],416 nM
same,GI50,[7],261 nM
same,TGI,[7],1190 nM
same,GI50,[8],243 nM
same,TGI,[8],1350 nM
same,GI50,[9],268 nM
same,TGI,[9],780 nM
same,GI50,[10],148 nM
same,TGI,[10],394 nM
same,GI50,[11],293 nM
same,TGI,[11],1050 nM
same,GI50,[12],227 nM
same,TGI,[12],822 nM
same,GI50,[13],1060 nM
same,TGI,[13],3130 nM
same,GI50,[14],330 nM
same,TGI,[14],1620 nM
same,GI50,[15],484 nM
same,TGI,[15],1940 nM
same,GI50,[16],91.2 nM
same,TGI,[16],311 nM
same,GI50,[17],266 nM
same,TGI,[17],994 nM
same,GI50,[18],531 nM
same,TGI,[18],2050 nM
same,GI50,[19],1480 nM
same,TGI,[19],3660 nM
same,GI50,[20],387 nM
same,TGI,[20],1780 nM
same,GI50,[21],204 nM
same,TGI,[21],517 nM
same,GI50,[22],284 nM
same,TGI,[22],901 nM
same,GI50,[23],372 nM
same,TGI,[23],1820 nM
same,GI50,[24],345 nM
same,TGI,[24],1560 nM
same,GI50,[25],25.1 nM
same,TGI,[25],110 nM
same,GI50,[26],103 nM
same,TGI,[26],1160 nM
same,GI50,[27],657 nM
same,TGI,[27],2520 nM
same,GI50,[28],445 nM
same,TGI,[28],2850 nM
same,GI50,[29],64.5 nM
same,TGI,[29],580 nM
